Measurements reported in US11911346B2, “Orally administrated therapeutic for treating mild cognitive impairment (MCI) and improving human cognitive function” (BrainCare LLC, priority 2021, dated 2024).

What was measured:
[1] = tested on: concentration and attention of participants with Subjective Cognitive Decline; test: Cambridge Brain Sciences (CBS) Feature Match test; assay type: in vivo, human; conditions: for Feature Match actual score: Week 4, normal 87-113; for Feature Match percentage change: Week 8, over 8 weeks
Source text: (§1) The Cambridge Brain Sciences (CBS) included a battery of four tests to measure various aspects of cognition and that affected different regions of the brain. Normal scores for each test ranged from 87 to 113.
The fourth test is the Feature Match (aka Feature Selection), which addresses concentration and attention, and correlates well with aging. It can detect early Alzheimer's disease, and non-Alzheimer's dementia.
(§2) The data are presented as mean±standard deviation (S.D.) at baseline, week 4, and week 8. Results from the Cognitive Failures Questionnaire and Cambridge Brain Sciences are compared using the Student's t-test in each intervention group between baseline and week 4 and between baseline and week 8. Significance was defined as p≤0.05. At each time point, the percentage change was compared with the values at baseline. This calculation was only obtained from the means between each time point, and the statistical analysis was not made on these percentage changes.
(§3) For Cambridge Brain Sciences tests, some responses were flagged as being a highly unusual response (found in less than 1% of Cambridge Brain Sciences normative database). […] These scores were considered to be invalid and excluded from the final analysis. For each participant, the combined mean scores of all four CBS tests were summed for at baseline and at week 8. The participants were then grouped according to these mean baseline score of all four tests as: below average (less than or equal to 100) and average and above (greater than 100).

[2] = tested on: concentration and response inhibition of participants with Subjective Cognitive Decline; test: Cambridge Brain Sciences (CBS) Double Trouble test; assay type: in vivo, human; conditions: for Double Trouble actual score: Week 4, normal 87-113
Source text: as §1
The second test is Double Trouble and addresses concentration and response inhibition. It can detect early Alzheimer's disease and age-related cognitive decline. It has a high reproducibility and is useful in distinguishing impaired and unimpaired aging. The parts of the brain involved include the right prefrontal cortex and dorsolateral region.
as §2, §3

[3] = one capsule daily (90 mg BCP), N=24
[4] = two capsules daily (180 mg BCP), N=25
[5] = two capsules daily (180 mg BCP)
[6] = one capsule daily (90 mg BCP), N=25
[7] = two capsules daily (180 mg BCP), N=22

In the case of `C=C1CC/C=C(\C)CC[C@@H]2[C@@H]1CC2(C)C` [BCP, beta-caryophyllene], the “Feature Match: % of participants with no change between baseline and week 8” value [1, 3] is reported as “(13%)”, the “Feature Match: number of participants improved between baseline and week 8” value [1, 3] is reported as 13 and the “Feature Match: number of participants with no change between baseline and week 8” value [1, 3] is reported as 3. The “Feature Match: number of participants worsened between baseline and week 8” value [1, 3] was 8, the “Feature Match actual score” value ([1]; one capsule daily (90 mg BCP)) was 98.3 ± 6.9 and the “Feature Match percentage change” value ([1]; one capsule daily (90 mg BCP)) was “+2.0%”. The “Feature Match: % of participants with no change between baseline and week 8” value [1, 4] was “(16%)”, the “Feature Match: number of participants improved between baseline and week 8” value [1, 4] was 10 and the “Feature Match: number of participants with no change between baseline and week 8” value [1, 4] was 4. The “Feature Match: number of participants worsened between baseline and week 8” value [1, 4] was 11, the “Feature Match actual score” value [1, 5] was 98.4 ± 7.6 and the “Feature Match percentage change” value [1, 5] was “No change”. For the same molecule, the “Double Trouble: number of participants improved between baseline and week 8” value [2, 6] was 15, the “Double Trouble: number of participants with no change between baseline and week 8” value [2, 6] was 0 and the “Double Trouble: number of participants worsened between baseline and week 8” value [2, 6] was 9. For the same molecule, the “Double Trouble: % of participants with sub-optimal score” value ([2]; one capsule daily (90 mg BCP), week 8 (56% at baseline)) was 44%, the “Double Trouble actual score” value ([2]; one capsule daily (90 mg BCP)) was 93 ± 15 and the “Double Trouble percentage change” value ([2]; one capsule daily (90 mg BCP), Week 8, over 8 weeks) was “+5.3%”. For the same molecule, the “Double Trouble: % of participants with no change between baseline and week 8” value [2, 7] was “(14%)”, the “Double Trouble: number of participants improved between baseline and week 8” value [2, 7] was 14 and the “Double Trouble: number of participants with no change between baseline and week 8” value [2, 7] was 3. For the same molecule, the “Double Trouble: number of participants worsened between baseline and week 8” value [2, 7] was 5 and the “Double Trouble actual score” value [2, 5] was 97.3 ± 15.2.
